Data reported in patent US10898421B2, “Anti-dandruff composition comprising pycnidione and epolone” (Croda International PLC, priority 2015, dated 2021).
Where two headings read alike, the source gives them in different places.

How the values were obtained:
[1] = tested on: Adult human epidermal keratinocytes (Heka); test: Cytotoxicity against keratinocyte cells (Alamar blue); format: cell-based; settings: for Keratinocyte MIC: 24 hrs treatment
Experimental: (§1) Adult human epidermal keratinocytes (Heka) isolated from skin (Invitrogen #C-005-5C) were grown and maintained in 15 mL of EPilife medium (Invitrogen #M-EPI-500) supplemented with HKGS growth supplements (Invitrogen #S-001-5) (0.2% v/v bovine pituitary extract (BPE), 5 μg/mL bovine insulin, 0.18 μg/mL hydrocortisone, 5 μg/mL bovine transferrin, 0.2 ng/mL human epidermal growth factor) and 50 μg/mL gentamicin (Sigma #G1397-10ML) in T75 cm2 cell culture flasks (VWR #CABD353136) and incubated at 37° C. in a humidified atmosphere of 5% CO2. Growth medium was refreshed every 2 days until the cells reached 50% confluency and then the medium was refreshed every 24 hours until 80% confluency was obtained.
(§2) At 80% confluency, the cells were counted, diluted and plated into 96 well treated cell culture plates (VWR #29442-054) at a cell density of 10000 cells per well in 90 μL of respective growth medium. All media used for the assay were the same without the addition of antibiotics. The plates were incubated at 37° C. in a humidified atmosphere of 5% CO2 to allow cells to adhere to the plates for 24 hrs before treatment. DMSO was used as the vehicle at a final concentration of 1% in the wells.
(§3) All compounds to be tested were resolublised in sterile DMSO (Sigma #D2438) and a dilution series was prepared for each cell line using the respective cell culture growth medium of which 10 μL were added to the respective assay plate well yielding eight final concentrations ranging from 128 μg/mL to 1 μg/mL per well (final well volume of 100 μL) and incubated at 37° C. in a humidified atmosphere of 5% CO2 for 24 hrs.
(§4) All samples were tested in triplicate. Each plate contained eight un-inoculated positive controls (media+20% DMSO), eight untreated negative controls (Media+20% DMSO+cells). Alamar blue (Invitrogen #Dal1100) was added, 24 hrs after treatment, to each well at 10% of the culture volume (11 μL in 100 μL). Fluorescence was monitored using a BioTek Synergy HT plate reader at 530/25 excitation, 590/35 emission and 35 sensitivity at both time zero and 4 hrs after Alamar blue was added. After subtracting the time zero emission 590 nm measurement from the final reading the inferred percentage of microorganism survival relative to vehicle control wells were calculated and the IC50 was determined.

[2] = Cytotoxicity against fibroblast cells (Alamar blue); format: cell-based, human; settings: human, 24 hrs treatment, Alamar blue, read-out: Fibroblast IC50
Experimental: (§5) Human foreskin BJ fibroblast cells (ATCC CRL-2522) were grown and maintained in 15 mL of Eagle's minimal essential medium (Sigma M5650) supplemented with 10% fetal bovine serum (VWR #CA95043-976) and 100 μU penicillin and 0.1 mg/mL streptomycin (VWR #CA12001-692) in T75 cm2 cell culture flasks (VWR #CABD353136) at 37° C. in a humidified atmosphere of 5% CO2. Culture medium was refreshed every two to three days and cells were not allowed to exceed 80% confluency.
as §2, §3, §4

[3] = tested on: Human foreskin BJ fibroblast cells (ATCC CRL-2522); test: as above; format: cell-based; settings: for Fibroblast MIC: 24 hrs treatment
Experimental: as §5, §2, §3, §4

[4] = Cytotoxicity against keratinocyte cells (Alamar blue); format: cell-based, human; settings: human
Experimental: as §1, §2, §3, §4

[5] = tested on: Malassezia furfur (ATCC #38593); test: Anti-fungal activity against Malassezia furfur (96 well broth assay, Alamar blue); format: cell-based; settings: ATCC38593, 120 h; for IC50: read-out: M. furfur IC50; for MIC: visible growth
Experimental: The terms Minimum Inhibitory Concentration and Half Maximal Inhibitory Concentration will be understood to have the following meanings. • Minimum Inhibitory Concentration (MIC) The minimum inhibitory concentration (MIC) will be understood to represent the lowest concentration of an anti-microbial that will inhibit the visible growth of a microorganism after overnight incubation. • Half Maximal Inhibitory Concentration (IC50) The half maximal inhibitory concentration (IC50) is a measure of the effectiveness of a substance in inhibiting a spec biological or biochemical function. This quantitative measure indicates how much of a particular drug or other substance (inhibitor) is needed to inhibit a given biological process (or component of a process, i.e. an enzyme, cell, cell receptor or microorganism) by half. IC50 represents the concentration of an active that is required for 50% inhibition in-vitro.
Malassezia furfur (ATCC #38593) was cultured on Media C agar for 7 days at 37° C. Yeast colonies were then harvested into 0.9% saline sterile diH2O and diluted to approximately 1.5×10^6 CFU/mL using a 0.5 MacFarland standard (Fisher #R20410) to create an assay inoculum. Assay inoculum was added to sterile Media C broth to a final concentration of 4.5×10^4 CFU/mL. Assays were carried out in 96 well plates with a final well volume of 100 μL.
Extract fractions and pure compounds were tested in triplicate against each organism. Extract fractions and pure compounds were re-suspended in sterile 20% DMSO.
as §4, with “Each” for “All samples were tested in triplicate. Each”, “DMSO+organism), and one column containing a concentration range of a ketoconazole as a control antibiotic. The assay plate was incubated at 37° C. for 5 days after which growth within the wells were visualised and photographed with a UVP Biospectrum 500 imaging system.” for “DMSO+cells).”, “blue” for “blue (Invitrogen #Dal1100)”, “then added” for “added, 24 hrs after treatment,”, “hours” for “hrs”

[6] = Stability of pycnidione formulated in off-the-shelf shampoo composition; format: physicochemical; settings: J&J baby shampoo, after a two month period
[7] = human foreskin BJ fibroblast cells (ATCC CRL-2522)
[8] = adult human epidermal keratinocytes (Heka), 24 hrs treatment, Alamar blue, read-out: Keratinocyte IC50
[9] = at 8 μg/ml, where inhibition of Malassezia yeasts is retained

Row | IC50 ([5]; 37° C., 5 days, Alamar blue) [µg/mL] | MIC ([5]; 37° C., 5 days) [µg/mL] | Compound | Keratinocyte MIC [1] [µg/mL] | CC50 at 24 h [2, 7] [µg/mL] | Fibroblast MIC [3] [µg/mL] | CC50 at 24 h [4, 8] [µg/mL] | stability of shampoo composition [6] | CC50 at 24 h [2] [µg/mL] | cell line cytotoxicity at lower concentrations (fibroblast) [3, 9] | CC50 at 24 h ([4]; text of b135, read-out: IC50, toxicity to keratinocyte cells) [µg/mL] | cell line cytotoxicity at lower concentrations (keratinocyte) [1, 9] | IC50 [5] [µg/mL]
1 | – | – | [O-]n1ccccc1=S.[O-]n1ccccc1=S.[Zn+2] [zinc pyrithione, zinc salt of 1-hydroxy-2-pyridinethione, reference compound] | 1 | – | – | – | – | – | – | – | – | –
2 | 24 | 32 | C/C1=C\CC(C)(C)/C=C/C[C@@]2(C)Oc3cc(O)c(=O)cc(C)c3C[C@@H]2C[C@H]1O [Epolone B, epolone B] | >128 | > 128 | >128 | 50 | – | – | – | – | – | –
3 | 48 | 64 | Cc1cc(=O)c(O)cc2c1C[C@H]1CC(C)(C)/C=C/C[C@@]3(C)Oc4cc(O)cc(C)c4C[C@@H]3C[C@H](O)[C@]1(C)O2 [Epolone A, epolone A] | 32 | 14 | 32 | 13 | – | – | – | – | – | –

Row | Compound | IC50 ([5]; 37° C., 5 days, Alamar blue) [µg/mL] | MIC ([5]; 37° C., 5 days) [µg/mL] | Keratinocyte MIC [1] [µg/mL] | CC50 at 24 h [2, 7] [µg/mL] | Fibroblast MIC [3] [µg/mL] | CC50 at 24 h [4, 8] [µg/mL] | stability of shampoo composition [6] | CC50 at 24 h [2] [µg/mL] | cell line cytotoxicity at lower concentrations (fibroblast) [3, 9] | CC50 at 24 h ([4]; text of b135, read-out: IC50, toxicity to keratinocyte cells) [µg/mL] | cell line cytotoxicity at lower concentrations (keratinocyte) [1, 9] | IC50 [5] [µg/mL]
4 | Cc1cc(=O)c(O)cc2c1C[C@H]1CC(C)(C)/C=C/C[C@@]3(C)Oc4cc(O)c(=O)cc(C)c4C[C@@H]3C[C@H](O)[C@]1(C)O2 [Pycnidione, pycnidione] | – | 8 | 64 | – | 64 | – | remained stable | 11 | no cell line cytotoxicity was observed | 15 | no cell line cytotoxicity was observed | 6
